Measurements as given in PubChem BioAssay AID1745844 (Carcinogenic Potency Database (CPDB), 2022).

System: rodent lifetime carcinogenesis bioassay, tumor incidence TD50
Test: chronic cancer bioassays in animals – CPDB, compiled studies (AID 1745844)
Settings: in drinking water

Question: Which results are given for Cc1cc(-c2ccc(N)c(C)c2)ccc1N?
Answer: TD50 (mouse, strain BALB/cStCrlfC3Hf/Nctr, females, site: lung, lesion: adenocarcinoma, dosed 52 weeks, study length 52 weeks): 147 mg/kg/day; TD50 (mouse, strain BALB/cStCrlfC3Hf/Nctr, females, site: lung, lesion: adenocarcinoma, dosed 78 weeks, study length 78 weeks): 168 mg/kg/day; TD50 (mouse, strain BALB/cStCrlfC3Hf/Nctr, females, site: lung, lesion: several types, types named in the paper, dosed 52 weeks, study length 52 weeks): 28.1 mg/kg/day; TD50 (mouse, strain BALB/cStCrlfC3Hf/Nctr, females, site: lung, lesion: several types, types named in the paper, dosed 78 weeks, study length 78 weeks): 295 mg/kg/day; TD50 (mouse, strain BALB/cStCrlfC3Hf/Nctr, males, site: lung, lesion: adenocarcinoma, dosed 52 weeks, study length 52 weeks): 123 mg/kg/day; TD50 (mouse, strain BALB/cStCrlfC3Hf/Nctr, males, site: lung, lesion: adenocarcinoma, dosed 112 weeks, study length 112 weeks): 50.1 mg/kg/day; TD50 (mouse, strain BALB/cStCrlfC3Hf/Nctr, males, site: lung, lesion: several types, types named in the paper, dosed 52 weeks, study length 52 weeks): 684 mg/kg/day; TD50 (mouse, strain BALB/cStCrlfC3Hf/Nctr, males, site: lung, lesion: several types, types named in the paper, dosed 78 weeks, study length 78 weeks): 423 mg/kg/day; TD50 (mouse, strain BALB/cStCrlfC3Hf/Nctr, males, site: lung, lesion: several types, types named in the paper, dosed 112 weeks, study length 112 weeks): 28.6 mg/kg/day; TD50 (rat, strain Fischer 344, females, site: Zymbal's gland, lesion: adenoma + adenoma, bilateral + carcinoma + carcinoma, bilateral, dosed 60 weeks, study length 60 weeks): 1.27 mg/kg/day; TD50 (rat, strain Fischer 344, females, site: Zymbal's gland, lesion: adenoma + adenoma, bilateral, dosed 60 weeks, study length 60 weeks): 3.08 mg/kg/day; TD50 (rat, strain Fischer 344, females, site: Zymbal's gland, lesion: carcinoma + carcinoma, bilateral, dosed 60 weeks, study length 60 weeks): 2 mg/kg/day; TD50 (rat, strain Fischer 344, females, site: all sites, lesion: mononuclear-cell leukemia, dosed 60 weeks, study length 60 weeks): 6.46 mg/kg/day; TD50 (rat, strain Fischer 344, females, site: any site (literature study), lesion: several types, types named in the paper, dosed 60 weeks, study length 60 weeks): 0.462 mg/kg/day; TD50 (rat, strain Fischer 344, females, site: brain, lesion: astrocytoma, malignant + malignant glioma + meningioma, malignant, dosed 60 weeks, study length 60 weeks): 15.4 mg/kg/day; TD50 (rat, strain Fischer 344, females, site: clitoral gland + colon + duodenum + ileum + jejunum + liver + lung + mammary gland + pharynx + rectum + skin + tongue + Zymbal's gland, lesion: adenoma + adenoma, bilateral + carcinoma + carcinoma, bilateral + adenocarcinoma + adenomatous polyp + mucinous adenocarcinoma + mucin, dosed 60 weeks, study length 60 weeks): 0.418 mg/kg/day; TD50 (rat, strain Fischer 344, females, site: clitoral gland, lesion: adenoma + adenoma, bilateral + carcinoma + carcinoma, bilateral, dosed 60 weeks, study length 60 weeks): 0.847 mg/kg/day; TD50 (rat, strain Fischer 344, females, site: clitoral gland, lesion: adenoma + adenoma, bilateral, dosed 60 weeks, study length 60 weeks): 1.31 mg/kg/day; TD50 (rat, strain Fischer 344, females, site: clitoral gland, lesion: carcinoma + carcinoma, bilateral, dosed 60 weeks, study length 60 weeks): 2.58 mg/kg/day; TD50 (rat, strain Fischer 344, females, site: colon + rectum, lesion: adenocarcinoma + adenomatous polyp, dosed 60 weeks, study length 60 weeks): 6.65 mg/kg/day; TD50 (rat, strain Fischer 344, females, site: colon + rectum, lesion: adenomatous polyp, dosed 60 weeks, study length 60 weeks): 7.11 mg/kg/day; TD50 (rat, strain Fischer 344, females, site: duodenum + ileum + jejunum, lesion: adenocarcinoma + adenomatous polyp + mucinous adenocarcinoma + mucinous cystadenocarcinoma, dosed 60 weeks, study length 60 weeks): 11 mg/kg/day; TD50 (rat, strain Fischer 344, females, site: duodenum + ileum + jejunum, lesion: adenocarcinoma + mucinous adenocarcinoma + mucinous cystadenocarcinoma, dosed 60 weeks, study length 60 weeks): 15.4 mg/kg/day; TD50 (rat, strain Fischer 344, females, site: liver, lesion: hepatocellular adenoma + hepatocellular carcinoma + neoplastic nodule, dosed 60 weeks, study length 60 weeks): 6.97 mg/kg/day; TD50 (rat, strain Fischer 344, females, site: liver, lesion: hepatocellular carcinoma + neoplastic nodule, dosed 60 weeks, study length 60 weeks): 6.97 mg/kg/day; TD50 (rat, strain Fischer 344, females, site: liver, lesion: neoplastic nodule, dosed 60 weeks, study length 60 weeks): 7.62 mg/kg/day; TD50 (rat, strain Fischer 344, females, site: lung, lesion: alveolar/bronchiolar adenoma + alveolar/bronchiolar carcinoma, dosed 60 weeks, study length 60 weeks): 11.9 mg/kg/day; TD50 (rat, strain Fischer 344, females, site: lung, lesion: alveolar/bronchiolar adenoma, dosed 60 weeks, study length 60 weeks): 13.6 mg/kg/day; TD50 (rat, strain Fischer 344, females, site: mammary gland, lesion: adenocarcinoma + fibroadenoma, dosed 60 weeks, study length 60 weeks): 5.77 mg/kg/day; TD50 (rat, strain Fischer 344, females, site: mammary gland, lesion: adenocarcinoma, dosed 60 weeks, study length 60 weeks): 8.33 mg/kg/day; TD50 (rat, strain Fischer 344, females, site: pharynx + tongue, lesion: squamous-cell carcinoma + squamous-cell papilloma, dosed 60 weeks, study length 60 weeks): 3.2 mg/kg/day; TD50 (rat, strain Fischer 344, females, site: pharynx + tongue, lesion: squamous-cell carcinoma, dosed 60 weeks, study length 60 weeks): 11.8 mg/kg/day; TD50 (rat, strain Fischer 344, females, site: pharynx + tongue, lesion: squamous-cell papilloma, dosed 60 weeks, study length 60 weeks): 4.26 mg/kg/day; TD50 (rat, strain Fischer 344, females, site: skin, lesion: basal-cell adenoma + basal-cell carcinoma, dosed 60 weeks, study length 60 weeks): 3.8 mg/kg/day; TD50 (rat, strain Fischer 344, females, site: skin, lesion: basal-cell adenoma, dosed 60 weeks, study length 60 weeks): 5.77 mg/kg/day; TD50 (rat, strain Fischer 344, females, site: skin, lesion: basal-cell carcinoma, dosed 60 weeks, study length 60 weeks): 11.6 mg/kg/day; TD50 (rat, strain Fischer 344, females, site: skin, lesion: squamous-cell carcinoma + squamous-cell papilloma, dosed 60 weeks, study length 60 weeks): 3.17 mg/kg/day; TD50 (rat, strain Fischer 344, females, site: skin, lesion: squamous-cell carcinoma, dosed 60 weeks, study length 60 weeks): 5.56 mg/kg/day; TD50 (rat, strain Fischer 344, females, site: skin, lesion: squamous-cell papilloma, dosed 60 weeks, study length 60 weeks): 7.06 mg/kg/day; TD50 (rat, strain Fischer 344, males, site: Zymbal's gland, lesion: adenoma + adenoma, bilateral + carcinoma + carcinoma, bilateral, dosed 58 weeks, study length 60 weeks): 1.12 mg/kg/day; TD50 (rat, strain Fischer 344, males, site: Zymbal's gland, lesion: adenoma + adenoma, bilateral, dosed 58 weeks, study length 60 weeks): 2.38 mg/kg/day; TD50 (rat, strain Fischer 344, males, site: Zymbal's gland, lesion: carcinoma + carcinoma, bilateral, dosed 58 weeks, study length 60 weeks): 1.93 mg/kg/day; TD50 (rat, strain Fischer 344, males, site: adrenal medulla, lesion: pheochromocytoma, benign, dosed 58 weeks, study length 60 weeks): 10.6 mg/kg/day; TD50 (rat, strain Fischer 344, males, site: any site (literature study), lesion: several types, types named in the paper, dosed 58 weeks, study length 60 weeks): 0.334 mg/kg/day; TD50 (rat, strain Fischer 344, males, site: brain, lesion: glioma malignant, focal, mild + malignant glioma + meningioma, malignant, dosed 58 weeks, study length 60 weeks): 26.1 mg/kg/day; TD50 (rat, strain Fischer 344, males, site: cecum + colon + duodenum + ileum + jejunum + large intestine + liver + lung + multiple organs + pharynx + preputial gland + rectum + skin + tongue, lesion: adenomatous polyp + adenocarcinoma + mucinous cystadenocarcinoma + hepatocellular carcinoma + neoplastic nodule + alveolar/bronchi, dosed 58 weeks, study length 60 weeks): 0.346 mg/kg/day; TD50 (rat, strain Fischer 344, males, site: cecum + colon + large intestine + rectum, lesion: adenomatous polyp + adenocarcinoma + mucinous cystadenocarcinoma, dosed 58 weeks, study length 60 weeks): 3.76 mg/kg/day; TD50 (rat, strain Fischer 344, males, site: cecum + colon + rectum, lesion: adenomatous polyp, dosed 58 weeks, study length 60 weeks): 4.87 mg/kg/day; TD50 (rat, strain Fischer 344, males, site: colon + large intestine + rectum, lesion: adenocarcinoma + mucinous cystadenocarcinoma, dosed 58 weeks, study length 60 weeks): 14.4 mg/kg/day; TD50 (rat, strain Fischer 344, males, site: duodenum + ileum + jejunum, lesion: mucinous cystadenocarcinoma + adenocarcinoma + adenomatous polyp, dosed 58 weeks, study length 60 weeks): 6.99 mg/kg/day; TD50 (rat, strain Fischer 344, males, site: duodenum + ileum + jejunum, lesion: mucinous cystadenocarcinoma + adenocarcinoma, dosed 58 weeks, study length 60 weeks): 7.79 mg/kg/day; TD50 (rat, strain Fischer 344, males, site: liver, lesion: hepatocellular adenoma + hepatocellular carcinoma + neoplastic nodule, dosed 58 weeks, study length 60 weeks): 0.898 mg/kg/day; TD50 (rat, strain Fischer 344, males, site: liver, lesion: hepatocellular carcinoma + neoplastic nodule, dosed 58 weeks, study length 60 weeks): 0.898 mg/kg/day; TD50 (rat, strain Fischer 344, males, site: liver, lesion: hepatocellular carcinoma, dosed 58 weeks, study length 60 weeks): 2.76 mg/kg/day; TD50 (rat, strain Fischer 344, males, site: liver, lesion: neoplastic nodule, dosed 58 weeks, study length 60 weeks): 1.12 mg/kg/day; TD50 (rat, strain Fischer 344, males, site: lung, lesion: alveolar/bronchiolar adenoma + alveolar/bronchiolar carcinoma, dosed 58 weeks, study length 60 weeks): 4.93 mg/kg/day; TD50 (rat, strain Fischer 344, males, site: lung, lesion: alveolar/bronchiolar adenoma, dosed 58 weeks, study length 60 weeks): 5.47 mg/kg/day; TD50 (rat, strain Fischer 344, males, site: multiple organs, lesion: mesothelioma, malignant, dosed 58 weeks, study length 60 weeks): 9.45 mg/kg/day; TD50 (rat, strain Fischer 344, males, site: pharynx + tongue, lesion: squamous-cell carcinoma + squamous-cell papilloma, dosed 58 weeks, study length 60 weeks): 8.47 mg/kg/day; TD50 (rat, strain Fischer 344, males, site: pharynx + tongue, lesion: squamous-cell carcinoma, dosed 58 weeks, study length 60 weeks): 26.7 mg/kg/day; TD50 (rat, strain Fischer 344, males, site: preputial gland, lesion: adenoma + carcinoma, dosed 58 weeks, study length 60 weeks): 3.96 mg/kg/day; TD50 (rat, strain Fischer 344, males, site: preputial gland, lesion: adenoma, dosed 58 weeks, study length 60 weeks): 4.94 mg/kg/day; TD50 (rat, strain Fischer 344, males, site: skin, lesion: basal-cell adenoma + basal-cell carcinoma, dosed 58 weeks, study length 60 weeks): 0.5 mg/kg/day; TD50 (rat, strain Fischer 344, males, site: skin, lesion: basal-cell adenoma, dosed 58 weeks, study length 60 weeks): 0.534 mg/kg/day; TD50 (rat, strain Fischer 344, males, site: skin, lesion: basal-cell carcinoma, dosed 58 weeks, study length 60 weeks): 8.85 mg/kg/day; TD50 (rat, strain Fischer 344, males, site: skin, lesion: keratoacanthoma, dosed 58 weeks, study length 60 weeks): 4.58 mg/kg/day; TD50 (rat, strain Fischer 344, males, site: skin, lesion: sebaceous adenoma, dosed 58 weeks, study length 60 weeks): 5.62 mg/kg/day; TD50 (rat, strain Fischer 344, males, site: skin, lesion: squamous-cell carcinoma + squamous-cell papilloma, dosed 58 weeks, study length 60 weeks): 1.55 mg/kg/day; TD50 (rat, strain Fischer 344, males, site: skin, lesion: squamous-cell carcinoma, dosed 58 weeks, study length 60 weeks): 2.8 mg/kg/day; TD50 (rat, strain Fischer 344, males, site: skin, lesion: squamous-cell papilloma, dosed 58 weeks, study length 60 weeks): 3.28 mg/kg/day
